The term IC50 denotes the concentration that inhibits the measured activity by half.

Assay [1] has as its system poly(dG-dC)2. Put plainly: Ethidium bromide assay, DNA-binding effects on poly. The conditions noted are these: EtBr-DNA complex, compound 10 μM, 25 °C 30 min.
Assay [2] concerns plasmid pBR322. As to the kind of experiment: Ethidium bromide assay, DNA-binding effects on plasmid pBR322. The note with it: EtBr-DNA complex, compound 10 μM, 25 °C 30 min; no drug = 100% fluorescence.
Assay [3] relates to calf thymus DNA. Put plainly: Ethidium bromide assay, DNA-binding effects on calf thymus DNA. The note with it: EtBr-DNA complex, compound 10 μM, 25 °C 30 min.
In assay [4] the test system is T4 coliphage DNA. Put plainly: Ethidium bromide assay, DNA-binding effects on T4 coliphage DNA. The conditions noted are these: EtBr-DNA complex, compound 10 μM, 25 °C 30 min.
Assay [5] addresses T1, recombinant human DHFR (Homo sapiens, UniProt P00374).
T1 sequence (P00374 1-187): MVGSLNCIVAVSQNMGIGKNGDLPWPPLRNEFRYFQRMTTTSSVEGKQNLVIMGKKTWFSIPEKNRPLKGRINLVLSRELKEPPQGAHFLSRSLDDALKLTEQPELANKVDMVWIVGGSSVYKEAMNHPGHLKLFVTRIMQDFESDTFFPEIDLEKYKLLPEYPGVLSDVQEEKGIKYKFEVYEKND
Put plainly: Dihydrofolate reductase. It counts as biochemical.

Assay [6] relates to poly(dA-dT)2. Put plainly: Ethidium bromide assay, DNA-binding effects on poly. The conditions noted are these: EtBr-DNA complex, compound 10 μM, 25 °C 30 min.

`COc1ccc(-c2csc(N/N=C(/C=C/c3ccc(Cl)cc3)C(=O)O)n2)cc1` [Compound 7, (2Z,3E)-4-(4-Chlorophenyl)-2-(2-(4-(4-methoxyphenyl)thiazol-2-yl)hydrazinylidene)but-3-enoic acid]: the “Decrease in fluorescence (%) Poly (dG-dC)2” value (shortened to “Decrease … (%) Poly (dG-dC)2”) in assay [1] turned out to be 62.38%. In assay [2], the “Decrease in fluorescence (%) pBr322” value was 62.36%. For the same compound, the “Decrease in fluorescence (%) Calf Thymus DNA” value (“Decrease … (%) Calf Thymus DNA” for short) in assay [3] turned out to be 44.21%. For the same compound, in assay [4], the “Decrease in fluorescence (%) T4 DNA” value is on record as 36.58%. Also, the IC50 in assay [5] worked out at 39.41 ± 0.03 µM.

Consider `O=C(O)C(/C=C/c1ccc(Cl)cc1)=N\Nc1nc(-c2ccc(F)cc2)cs1` [Compound 8, (2Z,3E)-4-(4-Chlorophenyl)-2-(2-(4-(4-fluorophenyl)thiazol-2-yl)hydrazinylidene)but-3-enoic acid], for which, in assay [1], the “Decrease … (%) Poly (dG-dC)2” value came to 62.99%. Also, the “Decrease in fluorescence (%) pBr322” value in assay [2] came to 60.93%. Besides, the “Decrease … (%) Calf Thymus DNA” value in assay [3] is on record as 40.00%. For the same compound, the “Decrease in fluorescence (%) T4 DNA” value in assay [4] is given as 37.19%. The “Decrease in fluorescence (%) Poly (dA-dT)2” value (from here on “Decrease … (%) Poly (dA-dT)2”) in assay [6] was determined as 52.83%. Also, the 50% inhibitory concentration (IC50) in assay [5] is 10.51 ± 0.05 µM.

Regarding `O=C(O)C(/C=C/c1ccc(Cl)cc1)=N\Nc1nc(-c2ccc(Cl)cc2)cs1` [Compound 9, (2Z,3E)-4-(4-Chlorophenyl)-2-(2-(4-(4-chlorophenyl)thiazol-2-yl)hydrazinylidene)but-3-enoic acid], the “Decrease … (%) Poly (dG-dC)2” value in assay [1] is 49.23%. Also, the “Decrease in fluorescence (%) pBr322” value in assay [2] is reported as 53.40%. Moreover, the “Decrease … (%) Calf Thymus DNA” value in assay [3] is reported as 53.68%. Moreover, the “Decrease in fluorescence (%) T4 DNA” value in assay [4] was 50.00%. For the same compound, in assay [6], the “Decrease … (%) Poly (dA-dT)2” value came to 71.19%. The IC50 in assay [5] was determined as 36.18 ± 0.01 µM.

On to `O=C(O)C(/C=C/c1ccc(Cl)cc1)=N\Nc1nc(-c2ccc(Br)cc2)cs1` [Compound 10, (2Z,3E)-4-(4-Chlorophenyl)-2-(2-(4-(4-bromophenyl)thiazol-2-yl)hydrazinylidene)but-3-enoic acid], for which the “Decrease … (%) Poly (dG-dC)2” value in assay [1] came out at 50.15%. The “Decrease in fluorescence (%) pBr322” value in assay [2] was found to be 53.76%. Besides, the “Decrease … (%) Calf Thymus DNA” value in assay [3] was 30.53%. Moreover, the “Decrease in fluorescence (%) T4 DNA” value in assay [4] was found to be 32.32%. Besides, in assay [6], the “Decrease … (%) Poly (dA-dT)2” value is 39.34%. In addition, the IC50 in assay [5] was 58.29 ± 0.02 µM.

As to `O=C(O)C(/C=C/c1c(Cl)cccc1Cl)=N\Nc1nc(-c2ccccc2)cs1` [Compound 12, (2Z,3E)-4-(2,6-dichlorophenyl)-2-(2-(4-phenylthiazol-2-yl)hydrazinylidene)but-3-enoic acid], the “Decrease … (%) Poly (dG-dC)2” value in assay [1] turned out to be 59.37%. In assay [2], the “Decrease in fluorescence (%) pBr322” value came to 54.84%. Besides, in assay [3], the “Decrease … (%) Calf Thymus DNA” value was 60.53%. The “Decrease in fluorescence (%) T4 DNA” value in assay [4] came to 48.17%. Moreover, in assay [6], the “Decrease … (%) Poly (dA-dT)2” value is given as 54.80%. For the same compound, the concentration for half-maximal inhibition (IC50) in assay [5] was determined as 21.06 ± 0.02 µM.

Take `Cc1ccc(-c2csc(N/N=C(/C=C/c3c(Cl)cccc3Cl)C(=O)O)n2)cc1` [Compound 13, (2Z,3E)-4-(2,6-dichlorophenyl)-2-(2-(4-(4-tolyl)thiazol-2-yl)hydrazinylidene)but-3-enoic acid]: in assay [1], the “Decrease … (%) Poly (dG-dC)2” value is on record as 75.62%. Besides, the “Decrease in fluorescence (%) pBr322” value in assay [2] stood at 62.01%. In addition, the “Decrease … (%) Calf Thymus DNA” value in assay [3] is reported as 67.71%. In assay [4], the “Decrease in fluorescence (%) T4 DNA” value amounted to 51.22%. The “Decrease … (%) Poly (dA-dT)2” value in assay [6] was 55.74%. Further, the 50% inhibitory concentration (IC50) in assay [5] was found to be 18.06 ± 0.03 µM.

As for `COc1cccc2c1C(=O)c1c(O)c3c(c(O)c1C2=O)C[C@@](O)(C(=O)CO)C[C@@H]3O[C@H]1C[C@H](N)[C@H](O)[C@H](C)O1` [DOX, doxorubicin, reference compound], the “Decrease in fluorescence (%) pBr322” value in assay [2] was determined as 100%. In addition, the concentration for half-maximal inhibition (IC50) in assay [5] stood at 8.31 ± 0.06 µM.

Regarding `COc1cc(Cc2cnc(N)nc2N)cc(OC)c1OC` [TMP, trimethoprim, reference compound], the “Decrease in fluorescence (%) pBr322” value in assay [2] was 100%.

For the origin of these results see article PMC11881662 (Journal of Enzyme Inhibition and Medicinal Chemistry, 2025).
